Measured values reported in the NIST ThermoML archive (doi:10.1021/je0601513).

Experiment: refractive index (Na D-line) (dimensionless); xn = mol fraction of the nth substance listed
Conditions: 101 kPa, Liquid, Standard Abbe refractometry

C[S+](C)[O-] [dimethyl sulfoxide] + CCCO
Conditions	refractive index
288.15 K, x1 = 0.0533	1.3942
288.15 K, x1 = 0.0938	1.3979
288.15 K, x1 = 0.1708	1.405
288.15 K, x1 = 0.2592	1.4132
288.15 K, x1 = 0.346	1.4212
288.15 K, x1 = 0.4294	1.429
288.15 K, x1 = 0.5115	1.4367
288.15 K, x1 = 0.5981	1.4449
288.15 K, x1 = 0.6853	1.4532
288.15 K, x1 = 0.7596	1.4603
288.15 K, x1 = 0.8438	1.4685
288.15 K, x1 = 0.9368	1.4774
298.15 K, x1 = 0.0554	1.3889
298.15 K, x1 = 0.1366	1.3966
298.15 K, x1 = 0.22	1.4045
298.15 K, x1 = 0.2987	1.4119
298.15 K, x1 = 0.4289	1.4239
298.15 K, x1 = 0.5022	1.4307
298.15 K, x1 = 0.5992	1.4398
298.15 K, x1 = 0.677	1.4472
298.15 K, x1 = 0.7656	1.4558
298.15 K, x1 = 0.8358	1.4627
298.15 K, x1 = 0.9181	1.4705
298.15 K, x1 = 0.9646	1.4747
308.15 K, x1 = 0.0537	1.3843
308.15 K, x1 = 0.1336	1.3916
308.15 K, x1 = 0.2147	1.3991
308.15 K, x1 = 0.2987	1.407
308.15 K, x1 = 0.3876	1.4152
308.15 K, x1 = 0.4707	1.4229
308.15 K, x1 = 0.5552	1.4308
308.15 K, x1 = 0.6418	1.4389
308.15 K, x1 = 0.7191	1.4462
308.15 K, x1 = 0.7998	1.454
308.15 K, x1 = 0.877	1.4614
308.15 K, x1 = 0.965	1.4698
